In patent US20100173872A1, “Method and Composition for Treating Alzheimer's Disease and Dementias of Vascular Origin” (THE BOARD OF TRUSTEES OF THE UNIVERSITY OF ILLINOIS, priority 2002, published 2010):
Bridge positions count the residues as written; N and C are the ends. Square brackets hold non-standard residues; d marks the D form. Ends that are not written are not given here. Peptide text beside a SMILES is read from it.

Key:
ET receptor = details: cited from earlier work; for effect of pretreatment on systemic hemodynamic and regional circulatory effects of ET-1: BQ123 10 μg ICV, centrally administered ET-1; for effect on hemodynamics or regional blood circulation: specific ETB receptor agonists, separate experiments
[1] = Effect of ET-1 infusion on brain blood flow in control and Aβ-treated rats; type: in vivo, rat; details: 30 minutes infusion; Aβ-treated vs control rats
Description: Studies in 3-month-old rats to determine the effect of Aβ on systemic hemodynamics and regional blood circulation were performed. […] The effect of ET-1 on the brain blood flow of control and Aβ treated rats also was determined (FIG. 4).
Once infusion was stopped, a rebound increase in blood flow was observed. It can be inferred that Aβ increased the endogenous concentration of ET-1, leading to vasoconstriction. Accordingly, the administration of an ET-1 antagonist can cause a rebound increase in blood flow.

[2] = test system: sympathetic nerve activity; details: ET-1 90 ng; cited from earlier work

CC(C)C[C@@H]1NC(=O)[C@@H](C(C)C)NC(=O)[C@@H]2CCCN2C(=O)[C@@H](CC(=O)O)NC(=O)[C@@H](Cc2c[nH]c3ccccc23)NC1=O [BQ123, cyclo(-D-Trp-D-Asp-Pro-D-Val-Leu-)] (cyclo(L[dW][dD]P[dV]))
effect of pretreatment on systemic hemodynamic and regional circulatory effects of ET-1 (ET receptor): blocked

CC(C)NCC(O)COc1cccc2ccccc12 (stereo not drawn) [propranolol]
effect of pretreatment on systemic hemodynamic and regional circulatory effects of ET-1 (ET receptor): blocked

ET-1: endothelin-1, a potent cerebrovascular vasoconstrictor peptide; ETA receptor agonist (CSCSSLMDKECVYFCHLDIIW; disulfide 1-15, 3-11; ends not checked; UniProt P05305 53-73, looked up)
effect of ET-1 infusion on brain blood flow [1]: more marked in Aβ-treated rats | sympathetic nerve activity [2]: significantly decreased | cardiac output and stroke volume (ET receptor; 45 ng ICV): significant decreases | total peripheral resistance (ET receptor; 45 ng ICV): remained unchanged

ET-2: ETA receptor agonist (CSCSSWLDKECVYFCHLDIIW; disulfide 1-15, 3-11; ends not checked; UniProt P20800 49-69, looked up)
intensity of effects in comparison to ET-1 and SRT6b (ET receptor; ET-2 90 ng ICV): less intense

ET-3: specific ETB receptor agonist
effect on hemodynamics or regional blood circulation (ET receptor): did not affect

sarafotoxin 6c
effect on hemodynamics or regional blood circulation (ET receptor): did not affect
